Measured values published in ChEMBL document CHEMBL4665649, “Resistance mechanisms and cross-resistance for a pyridine-pyrimidine amide inhibitor of microtubule polymerization” (Bioorg Med Chem Lett, 2019).
Active and inactive are the calls of the source. The calls are words filed in the database; no cut-off is given here.

Legend:
A2780 [1] = test: Antiproliferative activity against D4-9-31 resistance human A2780 cells incubated for 72 hrs by ATPlite reagent based assay; format: functional, cell-based; conditions: A2780, 72 h
A2780 [2] = test: Antiproliferative activity against human A2780 cells incubated for 72 hrs by ATPlite reagent based assay; format: functional, cell-based; conditions: A2780, 72 h
A2780 [3] = test: Antiproliferative activity against human A2780 cells assessed as reduction in mitochondrial respiration; format: functional, cell-based
A2780 [4] = test: Antiproliferative activity against D4-9-31 resistance human A2780 cells assessed as reduction in mitochondrial respiration; format: functional, cell-based
A2780 [5] = test: Antiproliferative activity against human A2780 cells incubated for 72 hrs by live-cell imaging based assay; format: functional; conditions: A2780, 72 h

SMILES	EC50 (A2780 [1]) [nM]	EC50 (A2780 [2]) [nM]	Activity (A2780 [3])	Activity (A2780 [4])	EC50 (A2780 [5]) [nM]
CC[C@]1(O)C[C@H]2CN(CCc3c([nH]c4ccccc34)[C@@](C(=O)OC)(c3cc4c(cc3OC)N(C=O)[C@H]3[C@@](O)(C(=O)OC)[C@H](OC(C)=O)[C@]5(CC)C=CCN6CC[C@]43[C@@H]65)C2)C1 [VINCRISTINE]	3.9	3.4	–	–	–
Cc1ncc(C(=O)Nc2ccc(-c3cccc(S(=O)(=O)C4CC4)c3)cn2)cn1	23	9.9	Active	Active	12
COc1cc2c(c(OC)c1OC)-c1ccc(OC)c(=O)cc1[C@@H](NC(C)=O)CC2 [COLCHICINE]	8.7	9.2	–	–	–
C/C(=C\c1csc(C)n1)[C@@H]1C[C@@H]2O[C@]2(C)CCC[C@H](C)[C@H](O)[C@@H](C)C(=O)C(C)(C)[C@@H](O)CC(=O)O1 [PATUPILONE]	4	5.2	–	–	–
CC(=O)O[C@H]1C(=O)[C@@]2(C)[C@H]([C@H](OC(=O)c3ccccc3)[C@]3(O)C[C@H](OC(=O)[C@H](O)[C@@H](NC(=O)c4ccccc4)c4ccccc4)C(C)=C1C3(C)C)[C@]1(OC(C)=O)CO[C@@H]1C[C@@H]2O [PACLITAXEL]	2.4	2.5	–	–	–
O=C(Nc1ccncc1)C(=O)c1cn(Cc2ccc(Cl)cc2)c2ccccc12 [INDIBULIN]	20	19	–	–	–
